Test results published in patent publication US8703964B2, “Bendamustine cyclopolysaccharide compositions” (Supratek Pharma Inc., priority 2009, dated 2014).

Legend:
[1] = Pharmacokinetics of bendamustine dosed to rats, composition with SBECD and cetylpyridinium chloride (Example 11); type: in vivo; conditions: female, Sprague-Dawley, rat, plasma, iv, i.v. 20 mg/kg, read-out: Concentration of bendamustine in rat plasma, Mean (SEM)
Method: Control: 6 mg/mL bendamustine hydrochloride, 10.2 mg/mL of mannitol in 0.9% NaCl; dose of 20 mg/kg
Inventive Composition: 5 mg/g bendamustine hydrochloride, 40% w/w sodium sulfobutyl ether β-cyclodextrin, 0.5% cetylpyridinium chloride, 8.5 mg/g mannitol in water (produced following the procedure of Example 8); dose of 20 mg/kg.
Female Sprague-Dawley rats (250-350 g). The animals were kept three per cage with an air filter cover under light (12 h light/dark cycle, light on at 06 h00) and controlled temperature 22° C.+/−1° C. All manipulations with the animals were performed under a sterilized laminar hood. The animals had ad libitum access to Purina mouse chow and water. The animals were fasted overnight and anesthetized, before dosing. Dosing and Sampling: The inventive bendamustine composition and control were administered intravenously to rats in tail vein. After time intervals of 5, 15, 30, 45 min, 1, 1.5, 2 and 3 hrs post-injection, blood samples were collected. The rats were anesthetized by general inhalation of isoflurane. The blood samples were collected from the jugular vein with heparinized tube and kept on ice. Blood was immediately centrifuged, and plasma was separated. The plasma samples were immediately extracted. Sample Extraction and Analysis: The plasma samples 0.100 mL were transferred to plastic tubes. The samples were extracted with 0.400 mL of 100 mM HCl in acetonitrile while being shaken vigorously for 30 seconds. The samples were centrifuged at 10000 RPM for 5 minutes. The supernatant was separated. The samples were frozen in dry ice and kept at −80° C. until HPLC analysis. 20 microliter aliquots were injected into the HPLC for analysis. The HPLC Conditions: C18 reversed phase column 50×4.6 mm, Symmetry/Shield 3.5 micrometer Column temperature 30° C. Flow rate 1.5 mL/min Injection volume 20 microliters Fluorescence detection at wavelengths: excitation 327 nm, emission 420 nm Mobile phase: Buffer A: 5% acetonitrile 0.1% TFA Buffer B: 90% acetonitrile 0.1% TFA Run time: 10 min The improved pharmacokinetic profiles of bendamustine for tested composition versus the control is shown in Table 1 below.

[2] = Pharmacokinetics of bendamustine dosed to rats, composition with SBECD and PI2080 (Example 12); type: in vivo, Female Sprague-Dawley rats; conditions: i.v. 10 mg/kg
Method: Control: 2.5 mg/mL bendamustine hydrochloride, 4.25 mg/mL of mannitol in 0.9% NaCl; dose of 10 mg/kg
Inventive Composition: 2.5 mg/mL bendamustine hydrochloride, 40% w/w sodium sulfobutyl ether β-cyclodextrin, 1% PI2080, 4.3 mg/g mannitol in water (prepared according to the procedure set forth in Example 9); dose of 10 mg/kg.
Female Sprague-Dawley rats (250-350 g). The animals were kept three per cage with an air filter cover under light (12 h light/dark cycle, light on at 06 h00) and controlled temperature 22° C.+/−1° C. All manipulations with the animals were performed under a sterilized laminar hood. The animals had ad libitum access to Purina mouse chow and water. The animals were fasted overnight and anesthetized, before dosing. Dosing and Sampling: Inventive bendamustine composition and control were administered intravenously to rats in tail vein. Blood samples were collected after time intervals of 5, 15, 30, 45 min, 1, 1.5, 2 and 3 hrs post-injection, The rats were anesthetised by general inhalation of isoflurane. The blood samples were collected from the jugular vein with heparinized tube and kept on ice. The blood was immediately centrifuged, and plasma was separated. The plasma samples were immediately extracted. Sample Extraction and Analysis: The plasma samples 0.100 mL were transferred to plastic tubes. The samples were extracted with 0.400 mL of 100 mM HCl in acetonitrile while being shaken vigorously for 30 seconds. The samples were centrifuged at 10000 RPM for 5 minutes. The supernatant was separated. The samples were frozen in dry ice and kept at −80° C. until HPLC analysis. The aliquots of 20 microliters were injected into HPLC for analysis. The HPLC Conditions: C18 reversed phase column 50×4.6 mm, Symmetry/Shield 3.5 micrometer Column temperature 30° C. Flow rate 1.5 mL/min Injection volume 20 microliters Fluorescence detection at wavelengths: excitation 327 nm, emission 420 nm Mobile phase: Buffer A: 5% acetonitrile 0.1% TFA Buffer B: 90% acetonitrile 0.1% TFA Run time: 10 min The improved pharmacokinetic profiles of Bendamustine for tested inventive composition versus the control is shown in Table 2 below.

Question: Which results are given for `Cn1c(CCCC(=O)O)nc2cc(N(CCCl)CCCl)ccc21` [BM, 4-[5-[bis(2-chloroethyl)amino]-1-methylbenzimidazol-2-yl]butanoic acid]?
Answer: concentration at 0.08 h ([1]; 0.08 h post injection): 12300 ng/mL; concentration at 0.25 h ([1]; 0.25 h post injection): 7620 ng/mL; concentration at 0.5 h ([1]; 0.5 h post injection): 3050 ng/mL; concentration at 0.75 h ([1]; 0.75 h post injection): 966 ng/mL; concentration at 1 h ([1]; 1 h post injection): 414 ng/mL; concentration at 1.5 h ([1]; 1.5 h post injection): 133 ng/mL; concentration at 2 h ([1]; 2 h post injection): 54 ng/mL; concentration at 3 h ([1]; 3 h post injection): 9 ng/mL; concentration at 0.08 h ([2]; female, Sprague-Dawley, rat, plasma, iv, 0.08 h post injection, read-out: Concentration of bendamustine in rat plasma, Mean (SEM)): 6040 ng/mL; concentration at 0.25 h ([2]; female, Sprague-Dawley, rat, plasma, iv, 0.25 h post injection, read-out: Concentration of bendamustine in rat plasma, Mean (SEM)): 2430 ng/mL; concentration at 0.5 h ([2]; female, Sprague-Dawley, rat, plasma, iv, 0.5 h post injection, read-out: Concentration of bendamustine in rat plasma, Mean (SEM)): 520 ng/mL; concentration at 0.75 h ([2]; female, Sprague-Dawley, rat, plasma, iv, 0.75 h post injection, read-out: Concentration of bendamustine in rat plasma, Mean (SEM)): 145 ng/mL; concentration at 1.5 h ([2]; female, Sprague-Dawley, rat, plasma, iv, 1.5 h post injection, read-out: Concentration of bendamustine in rat plasma, Mean (SEM)): 8 ng/mL; concentration at 2 h ([2]; female, Sprague-Dawley, rat, plasma, iv, 2 h post injection, read-out: Concentration of bendamustine in rat plasma, Mean (SEM)): 2 ng/mL; Concentration of bendamustine in rat plasma, Mean (SEM) ([2]; 1 h post injection): 48 (11) ng/mL; Concentration of bendamustine in rat plasma, Mean (SEM) ([2]; 3 h post injection): 0 (1) ng/mL
